According to publication PMC10587126, “Molecular hybridization strategy for tuning bioactive peptide function” (Communications Biology, 2023):
No end group written: not given here.

Tests used:
human erythrocytes = assay: Hemolytic activity; format: cell-based; settings: 0.1–100 μmol L^−1 in PBS, room temperature, 1 h, absorbance 405 nm
Experimental: Assays against freshly collected human erythrocytes were performed following protocols described by Pedron et al.[54]. Briefly, peptide aliquots at concentrations ranging from 0.1 to 100 μmol L^−1 were incubated with a suspension of erythrocytes at room temperature for 1 h. The samples were then centrifuged, and the absorbance of the supernatant was measured at 405 nm. […] The surfactant SDS and PBS buffer were used as positive[81],[82] and negative controls, respectively. Sodium heparin was used as an anticoagulant when collecting human blood. Three biological repeats were performed. All experiments were performed in accordance with the protocol CEUA/IB #I-1345/15 approved by the Instituto Butantan.

[1] = system: Pseudomonas aeruginosa PAO1; assay: Broth microdilution MIC, ESKAPE pathogens; format: cell-based; settings: strain not given (PAO1 and PA14 tested), LB, 37 °C, 24 h
Experimental: Peptides were tested in antimicrobial assays against Serratia marcescens ATCC 4112, Enterobacter cloacae β-12, Micrococcus luteus A270, Bacillus megaterium ATCC 10778, Bacillus subtilis ATCC 6633, Candida albicans MDM8, Candida tropicalis IOC 4560, Acinetobacter baumannii ATCC 19606, Escherichia coli ATCC 11775, Escherichia coli AIC221, Escherichia coli AIC222, Klebsiella pneumoniae ATCC 13883, Staphylococcus aureus ATCC 12600, Pseudomonas aeruginosa PAO1, and Pseudomonas aeruginosa PA14. All microorganisms were obtained from the American Type Culture Collection (ATCC), Instituto Butantan, São Paulo, Brazil, and the clinical isolate strains were donated from the Oswaldo Cruz Institute Collection (IOC), Rio de Janeiro, Brazil.
The minimal inhibitory concentration (MIC) against the ESKAPE pathogens was determined using the broth microdilution method[7] in Luria-Bertani (LB) medium. The MIC value was defined as the lowest concentration of peptide at which no microbial growth was observed. A. baumannii ATCC 19606, E. coli ATCC 11775, E. coli AIC221, E. coli AIC222, K. pneumoniae ATCC 13883, S. aureus ATCC 12600 P. aeruginosa PAO1, and P. aeruginosa PA14 were incubated on agar plates, and after 24 h, three isolated colonies were inoculated to 5 mL of Luria-Bertani (LB) broth and maintained at 37 °C overnight with shaking. Peptides were then added to 96-well polystyrene microtiter plates at concentrations ranging from 0 to 128 μmol L^−1, and 5 × 10^5 CFU mL^−1 of each bacterium was inoculated in each well. The plates were incubated at 37 °C for 24 h. Bacterial growth was measured using a microplate reader at 610 nm. Three independent replicates were performed.

[2] = Resistance to proteolytic degradation in fetal bovine serum; format: in vitro ADME; settings: 25% fetal bovine serum in water, 37 °C; for Peptide remaining after 30 min: LC peak area vs time 0, 30 min, three replicates
Experimental: Stability assays were performed following the protocol described by Torres et al.[67]. Briefly, a peptide solution was added to GIBCO fetal bovine serum diluted to 25% in water and kept at 37 °C. The degradation kinetics were monitored by liquid chromatography and the percentage of peptide remaining in each case was calculated by integrating the peptide peak area. These experiments were performed as three independent replicates, and aliquots were taken at 0, 0.5, 1, 2, 4, and 6 h.

[3] = Mouse body weight in the skin abscess infection model; format: in vivo
Experimental: The anti-infective activity of the peptides VmCT1, temporin A, VT, and TV against A. baumannii ATCC 19606 was evaluated as described by Torres et al.[7],[83] Bacteria were grown in tryptic soy broth medium to an optical density of 0.5 at 600 nm. Cells were washed twice with sterile phosphate-buffered saline (pH 7.4, 13,000 rpm for 1 min) and resuspended to a final concentration of 1 × 10^7 CFU/20 μL. To generate the skin infection, female CD-1 mice (6-weeks-old) were first anesthetized with isoflurane and their backs were shaved. Using a needle, a superficial linear abrasion was made on the shaved area of the mice to injure just the stratum corneum and the upper layer of the epidermis. An aliquot of 20 μL containing 1 × 10^7 CFU of A. baumannii was then inoculated over the wound area with a pipette tip. The next day, the infected area was treated with the peptides (i.e., VmCT1, temporin A, VT, and TV), which were administered onto the abscess at their MIC. The animals were euthanized, and the scarified skin area removed 2- and 4-days post-infection. The excised area was homogenized using a bead beater for 20 min (25 Hz) and serially diluted for CFU quantification. Eight mice were used per group (n = 8). All experiments were performed in accordance with protocol 806763 approved by the IACUC at the University of Pennsylvania.

[4] = system: MCF-7 human breast cancer cells; assay: MTT assay, anticancer activity; format: cell-based; settings: 37 °C
Experimental: The anticancer activity assays were performed using MCF-10A human breast epithelial cells and MCF-7 mammary cancer cells as previously described by Pedron et al.[78]. Briefly, the day before treatment, the cells were incubated at 37 °C and 5% CO2 for 24 h. The cells were treated with peptides ranging from 12.5 to 100 μmol L^−1 (MCF10-A cells) and 0.8 to 100 μmol L^−1 (MCF-7 cells) for 4 h and 24 h at 37 °C, and cell viability was measured using 3-(4,5-Dimethylthiazol-2-yl)-2,5-diphenyltetrazolium bromide (MTT) assays[79],[80]. Three independent replicates were performed in each case.

[5] = LC peak area, time 0 = 100, 0.5 h, replicate 1
[6] = LC peak area, time 0 = 100, 0.5 h, replicate 2
[7] = LC peak area, time 0 = 100, 0.5 h, replicate 3
[8] = LC peak area, time 0 = 100, 1 h, replicate 1
[9] = LC peak area, time 0 = 100, 1 h, replicate 2
[10] = LC peak area, time 0 = 100, 1 h, replicate 3
[11] = LC peak area, time 0 = 100, 2 h, replicate 1
[12] = LC peak area, time 0 = 100, 2 h, replicate 2
[13] = LC peak area, time 0 = 100, 2 h, replicate 3
[14] = LC peak area, time 0 = 100, 4 h, replicate 1
[15] = LC peak area, time 0 = 100, 4 h, replicate 2
[16] = LC peak area, time 0 = 100, 4 h, replicate 3
[17] = LC peak area, time 0 = 100, 6 h, replicate 1
[18] = LC peak area, time 0 = 100, 6 h, replicate 2
[19] = LC peak area, time 0 = 100, 6 h, replicate 3
[20] = day 0 = 100, Day 1, replicate 1
[21] = day 0 = 100, Day 1, replicate 2
[22] = day 0 = 100, Day 1, replicate 3
[23] = day 0 = 100, Day 2, replicate 1
[24] = day 0 = 100, Day 2, replicate 2
[25] = day 0 = 100, Day 2, replicate 3
[26] = day 0 = 100, Day 3, replicate 1
[27] = day 0 = 100, Day 3, replicate 2
[28] = day 0 = 100, Day 3, replicate 3
[29] = day 0 = 100, Day 4, replicate 1
[30] = day 0 = 100, Day 4, replicate 2
[31] = day 0 = 100, Day 4, replicate 3

Substance	Hemolytic activity (concentration of peptide needed to kill 10% of red blood cells) (human erythrocytes)	Peptide remaining [2, 5]	Peptide remaining [2, 6]	Peptide remaining [2, 7]	Peptide remaining [2, 8]	Peptide remaining [2, 9]	Peptide remaining [2, 10]	Peptide remaining [2, 11]	Peptide remaining [2, 12]	Peptide remaining [2, 13]	Peptide remaining [2, 14]	Peptide remaining [2, 15]	Peptide remaining [2, 16]	Peptide remaining [2, 17]	Peptide remaining [2, 18]	Peptide remaining [2, 19]	Mouse body weight, normalized to the weight at the beginning of the experiment [3, 20]	Mouse body weight, normalized to the weight at the beginning of the experiment [3, 21]	Mouse body weight, normalized to the weight at the beginning of the experiment [3, 22]	Mouse body weight, normalized to the weight at the beginning of the experiment [3, 23]	also measured
FLGTLWGGAKGVF-NH2 [VP]	100 µmol/L	24.2	22.1	20.2	14.7	16.0	11.8	3.6	3.6	4.4	0.0	0.0	0.0	0.0	0.0	0.0					MIC against P. aeruginosa [1]: 128 µM
FLPLIGRVLSGIL-NH2 [Temporin A, reference compound]	0.2 µmol/L	0	0		0	0	0	0	0	0	0	0	0	0	0	0	95	105	100	95	Mouse body weight, normalized to the weight at the beginning of the experiment [3, 24]: 100; Mouse body weight, normalized to the weight at the beginning of the experiment [3, 25]: 100; Mouse body weight, normalized to the weight at the beginning of the experiment [3, 26]: 95; Mouse body weight, normalized to the weight at the beginning of the experiment [3, 27]: 100; Mouse body weight, normalized to the weight at the beginning of the experiment [3, 28]: 95; Mouse body weight, normalized to the weight at the beginning of the experiment [3, 29]: 95; Mouse body weight, normalized to the weight at the beginning of the experiment [3, 30]: 100; Mouse body weight, normalized to the weight at the beginning of the experiment [3, 31]: 95; MCF-7 4 h LD50 ([4]; 4 h of incubation): 50 µmol/L; MCF-7 24 h LD50 ([4]; 24 h of incubation): 50 µmol/L; Peptide remaining after 30 min [2]: totally degraded; remaining at 0.5 h ([2]; fetal bovine serum, 25% in water, LC peak area, time 0 = 100, 0.5 h, replicate 3, read-out: Peptide remaining): 0%
FLPLLWRVASGVF-NH2 [VT]	0.2 µmol/L	0	0	0		0	0	0	0	0	0	0	0	0	0	0	95	100	100	90	Mouse body weight, normalized to the weight at the beginning of the experiment [3, 24]: 105; Mouse body weight, normalized to the weight at the beginning of the experiment [3, 25]: 100; Mouse body weight, normalized to the weight at the beginning of the experiment [3, 26]: 90; Mouse body weight, normalized to the weight at the beginning of the experiment [3, 27]: 100; Mouse body weight, normalized to the weight at the beginning of the experiment [3, 28]: 95; Mouse body weight, normalized to the weight at the beginning of the experiment [3, 29]: 95; Mouse body weight, normalized to the weight at the beginning of the experiment [3, 30]: 100; Mouse body weight, normalized to the weight at the beginning of the experiment [3, 31]: 95; Peptide remaining after 30 min [2]: totally degraded; remaining at 1 h ([2]; fetal bovine serum, 25% in water, LC peak area, time 0 = 100, 1 h, replicate 1, read-out: Peptide remaining): 0%
